SMILES strings stand for the structures. Active and inactive are the calls of the source. No rule for the calls is given here.

As a reminder, the IC90 is the point of the concentration-response curve where the effect stands at 90%. What is called IC50 is the concentration at which inhibition is half-maximal. Low values mean greater potency, high ones weaker potency.

One assay relates to M. tuberculosis H37Rv growth inhibition. Put plainly: M. tuberculosis H37Rv growth inhibition, dose response, strain H37Rv (AID 489010).
Conditions: not given
For `C(=N\Nc1nncc2ccccc12)/c1ccccn1`, the IC90 is 19.8 µM.

With `Cc1c(/C=N/Nc2nc3ccccc3[nH]2)c2ccccc2n1C`, the IC90 was 16.2 µM.

As for `CC(=O)N(Cc1ccc(F)cc1)C1=C(NCCc2ccccc2)C(=O)c2ccccc2C1=O`, the IC90 was 1.31 µM.

The assay is the same for the next values; noted with them: measured here: H37Rv growth IC50.
`C(=N\Nc1nncc2ccccc12)/c1ccccn1`: the IC50 worked out at 15.9 µM. This counts as double-digit micromolar.

With `Cc1ccc(CS(=O)(=O)c2ncc(Cl)c(C(=O)Nc3nnc(C(C)C)s3)n2)cc1`, the IC50 was found to be 53.5 µM.

With `Cn1nc(-c2ccccn2)nc2c(=O)n(C)c(=O)nc1-2`, the half-inhibitory concentration (IC50) is 10.1 µM.

`O=C(OCn1ncc(Cl)c(Cl)c1=O)c1cccc(C(F)(F)F)c1` gave an IC50 of 44.9 µM.

`COC(=O)c1c(C)oc2ccc(N(C(=O)c3ccncc3)S(=O)(=O)c3ccc4ccccc4c3)cc12` registered an IC50 of 66.9 µM. This IC50 and that of the compound before are within 1.5-fold of each other.

The compound `CCn1nc(/C=C/c2ccccc2)nc2c(=O)n(C)c(=O)nc1-2` showed an IC50 of 6.39 µM.

`Cc1cc(C)cc(Cn2ncc(Cl)c(Cl)c2=O)c1` displayed an IC50 of 11.7 µM. Against the preceding compound, the IC50 is about 1.8-fold higher.

`O=C(OCn1ncc(Cl)c(Cl)c1=O)c1ccccc1Cl` gave an IC50 of 22.1 µM. Against the preceding compound, the IC50 is about 1.9-fold higher.

In turn, `C/C(=N\NC(=O)c1ccncc1)c1cc2ccccc2oc1=O` registered an IC50 of 0.29 µM.

In the case of `Cc1oc2c(c1C(=O)NCc1cccnc1)C(=O)c1ccccc1C2=O`, the IC50 is less than 0.2 µM.

In turn, `COC(=O)c1sc(-c2ccc(Cl)cc2)cc1NC(=O)/C=C/C(=O)O` had an IC50 of 41.8 µM.

`Cc1sc2ncnc(Sc3nnnn3-c3ccccc3)c2c1C` displayed an IC50 of 40.5 µM.

The compound `CC(NC(=O)COC(=O)c1cc(NS(=O)(=O)c2ccc(Cl)c([N+](=O)[O-])c2)ccc1O)C1CC2CCC1C2` (stereo not given) displayed an IC50 of 52.1 µM.

`Cc1ccc(C)c(Sc2ccc(NC(=O)CCl)cc2)c1` yielded an IC50 of 22.5 µM.

Turning to `COC(=O)c1sc(-c2ccc(C(C)(C)C)cc2)cc1NC(=O)/C=C/C(=O)O`, the IC50 stood at 19.1 µM. The IC50 values of the last two compounds are within 1.5-fold of each other.

As for `Cc1ccccc1-n1ncc2c([N+](=O)[O-])cc([N+](=O)[O-])cc21`, the IC50 was determined as 1.01 µM.

In the case of `Cc1nn(-c2ccccc2)c(Cl)c1CN(C(=O)CCl)c1cccc2ccccc12`, the IC50 is 21.7 µM.

With `COc1cc(NCCCCCCCN)c2ncccc2c1`, the IC50 stood at 36.3 µM.

`COc1ccc(N(C(=O)CCl)C(C(=O)NCCc2ccccc2)c2cccs2)cc1` (stereo not given) came in with an IC50 of 7.8 µM.

For the compound `COc1ccc2nc(C)cc(Sc3nc4ccccc4s3)c2c1`, the IC50 was 42.3 µM.

For the compound `Cn1c(O)c(C2=NN(C(=O)CCl)C(c3ccccc3)C2)c(=O)n(C)c1=O` (stereo not given), the IC50 came out at 82.7 µM.

In turn, `Cc1ccc(N(C(=O)CCl)C(C(=O)NC2CCCCC2)c2cccnc2)cc1C` (stereo not given) returned an IC50 of 20.5 µM.

Compound `Cc1cc(Br)c2c(c1)/C(=C/C(=O)c1cccs1)C(=O)N2` came in with an IC50 of 11.7 µM.

In turn, `Cc1ccc(C(=O)Oc2ccc([N+](=O)[O-])cc2)cc1S(=O)(=O)N1CCCCCC1` displayed an IC50 of 46.6 µM. This IC50 is about 4-fold higher than that of the compound before.

In turn, `Cc1cccc(Cn2nnc3c2C(=O)c2ccccc2C3=O)c1` yielded a half-maximal inhibitory concentration (IC50) of 13.7 µM. This IC50 is about 3.4-fold lower than that of the compound before.

`O=C(NC(NC(=S)Nc1ccc(Cl)cc1Cl)C(Cl)(Cl)Cl)c1cccc([N+](=O)[O-])c1` (stereo not given) displayed an IC50 of 9.33 µM.

Compound `Cc1c(/C=N/Nc2nc3ccccc3[nH]2)c2ccccc2n1C` registered a half-maximal inhibitory concentration (IC50) of 9.5 µM.

Consider `C=CCOc1ccccc1CN(C(=O)CCl)c1ccc2c(c1)OCO2`, for which the IC50 is 1.64 µM.

Turning to `COc1cccc(N(C(=O)CCl)C(C(=O)NCCc2ccccc2)c2cccs2)c1` (stereo not given), the IC50 came to 19.1 µM.

In the case of `O=C(NC1=C(NC2CCS(=O)(=O)C2)C(=O)c2ccccc2C1=O)c1ccccc1` (stereo not given), the IC50 is 50.7 µM.

Compound `O=C(CCl)Nc1cn(-c2ccccc2)nc1-c1ccc(F)cc1` yielded an IC50 of less than 0.2 µM.

As to `Cc1ccc(Sc2ccc(NC(=O)CCl)cc2)c(C)c1`, the IC50 came to 17.7 µM.

For `Cc1ccc(-n2nnc3c(SCC(=O)NCC4CCCO4)ncnc32)cc1` (stereo not given), the IC50 turned out to be 46.4 µM.

`CSc1nnc(NC(=O)c2nc(S(=O)(=O)Cc3cccc(C)c3)ncc2Cl)s1` registered an IC50 of 23.8 µM.

Compound `COc1cc2c(cc1OC)C(c1cc(Br)ccc1F)N(C(=O)CCl)CC2` (stereo not given) registered an IC50 of 5.91 µM.

`O=C(CCl)N1c2ccccc2OCC1c1ccccc1` (stereo not given) returned an IC50 of 1.69 µM.

`CC(=O)n1cc(N(C(=O)CCl)c2ccc(C)cc2)c2ccccc21` showed a concentration for half-maximal inhibition (IC50) of 1.95 µM.

`Cc1ccc2c(c1)c1c3n2CCN(C(=O)CCl)C3CCC1` (stereo not given) registered an IC50 of 1.39 µM. The IC50 values of the last two compounds are within 1.5-fold of each other.

`Cc1nn(-c2ccccc2)c(Cl)c1CN(C(=O)CCl)c1ccc(Cl)cc1`: the IC50 is 1.53 µM.

For the compound `Cc1ccc(N(NC(=O)C(O)(c2ccccc2)c2ccccc2)C(=O)CCl)cc1`, the IC50 was 12 µM.

As for `Cc1ccc(C(=O)OCn2ncc(Cl)c(Cl)c2=O)cc1`, the IC50 is 42.3 µM.

Consider `COc1cc2c(cc1OC)-c1c(OC)c(OC)cc3c1C(C2)N(C)CC3` (stereo not given), for which the IC50 stood at 25.8 µM.

In turn, `CC(C)(C)C1CCc2sc(C(=O)NNC(=O)CCl)cc2C1` (stereo not given) displayed a 50% inhibitory concentration (IC50) of 6.29 µM.

Take `O=C(N/N=C/c1c(O)n(C2CCCCC2)c(=S)[nH]c1=O)c1ccccc1O`: the IC50 was more than 100 µM.

Regarding `Cc1oc2c(c1C(=O)N1CCOCC1)C(=O)c1ccccc1C2=O`, the IC50 worked out at 18 µM.

`O=C(CCl)N(c1ccc(Cl)cc1)c1c[nH]c2ccccc12` gave an IC50 of 1.91 µM. Against the preceding compound, the IC50 is about 9.4-fold lower.

Compound `CCCCCCCCCCn1c2c(c(=N)c3c1CCC3)CCC2` showed an IC50 of 2.16 µM. The IC50 values of the last two compounds are within 1.5-fold of each other.

`CN(C1=C(NC(=O)c2ccc(Cl)cc2)C(=O)c2ccccc2C1=O)c1ccccc1` had an IC50 of 9.43 µM.

`Cc1[nH]n(-c2ccccc2)c(=O)c1C(c1cccc([N+](=O)[O-])c1)c1c(C)[nH]n(-c2ccccc2)c1=O`: the IC50 was more than 100 µM.

In turn, `CCN(CC)CCNC(=O)c1ccc2c(c1NCCO)C(=O)c1ccccc1C2=O` gave an IC50 of more than 100 µM.

Turning to `COc1ccc(C(=O)c2c(C(F)(F)F)oc3c2C(=O)c2ccccc2C3=O)cc1OC`, the IC50 amounted to 9.48 µM.

`O=C(Cc1ccccc1)c1c[nH]c(C(=O)C(Cl)(Cl)Cl)c1` registered an IC50 of 93.8 µM.

`CC(=O)N(Cc1ccc(F)cc1)C1=C(NCCc2ccccc2)C(=O)c2ccccc2C1=O` yielded an IC50 of 0.74 µM.

As to `CC1=NNC(=O)C1Cc1c(Cl)cccc1Cl` (stereo not given), the IC50 worked out at 46.2 µM.

`CC(C)c1nnc(NC(=O)c2nc(S(=O)(=O)Cc3ccc(F)cc3)ncc2Cl)s1` gave an IC50 of 53.8 µM.

`O=C(NC1CCCCC1)C(c1cccnc1)N(C(=O)CCl)c1cccc(Cl)c1` (stereo not given) yielded an IC50 of 15.5 µM.

In turn, `CC(CCc1ccccc1)NC(=O)COC(=O)c1cc(NS(=O)(=O)c2ccc(Cl)c([N+](=O)[O-])c2)ccc1O` (stereo not given) displayed an IC50 of more than 100 µM.

Take `Cc1[nH]n(-c2ccccc2)c(=O)c1C(C[N+](=O)[O-])c1ccc(F)cc1` (stereo not given): the IC50 was 19.6 µM.

Compound `CSc1nnc(NC(=O)c2nc(S(=O)(=O)Cc3ccccc3F)ncc2Cl)s1` showed an IC50 of 41.3 µM.

In the case of `Clc1ccc(-n2nnnc2Sc2ncnc3sccc23)cc1`, the IC50 came to 5.98 µM.

Regarding `CC(=O)n1cc(N(C(=O)CCl)c2ccccc2)c2ccccc21`, the IC50 amounted to 2.14 µM.

`Cc1nc2c(=O)n(C)c(=O)nc-2n(C)n1`: the IC50 is 1.9 µM.

On to `Cc1ccc(Sc2ccc(NC(=O)CCl)cc2)cc1C`, for which the IC50 was found to be 14.4 µM.

With `Cn1nc(-c2ccc(Cl)cc2)nc2c(=O)n(C)c(=O)nc1-2`, the IC50 worked out at 6.35 µM.

For the compound `CC(C)(C)c1csc(Sc2ccc([N+](=O)[O-])cn2)n1`, the IC50 amounted to 51 µM.

As for `Fc1ccc(Oc2nc(-c3ccccc3)nnc2C(F)(F)F)cc1`, the IC50 is more than 100 µM.

In turn, `Cc1cc(C)c(S(=O)(=O)/N=C2\C=C(Nc3ccc(C(=O)O)cc3)C(=O)c3ccccc32)c(C)c1` returned an IC50 of more than 100 µM.

`CN(C1=C(NC(=O)c2ccccc2)C(=O)c2ccccc2C1=O)C1CCS(=O)(=O)C1` (stereo not given) showed an IC50 of 88.6 µM.

The compound `CC(=O)n1cc(N(C(=O)CCl)c2ccc([N+](=O)[O-])cc2)c2ccccc21` displayed an IC50 of 3.24 µM.

The compound `CCC(C)[C@@H](NC(=O)OC(C)(C)C)c1nnc(S(=O)(=O)Cc2cccc(C)c2)o1` (stereo not given in full) came in with an IC50 of 31.9 µM. This IC50 is about 9.8-fold higher than that of the compound before.

System in a further assay: not listed separately
Described as above. As to conditions: M. tuberculosis H37Rv growth inhibition; at 100 µM (top of the series).
As to `CCOC(=O)C/C(C)=N/NC(=O)COc1ccccc1C`, the growth inhibition was 2.99% (inactive).

For `Cc1nc2ccccc2c2c1C(=O)N(C)C2=O`, the growth inhibition is -4.82% (inactive).

`Cc1ccc(SCC2=NNC(=O)C2)cc1`: the growth inhibition is 5.45% (inactive).

Turning to `COC(=O)C(C#N)C(c1cccnc1)c1c(C)[nH][nH]c1=O` (stereo not given), the growth inhibition was -0.4% (inactive).

Consider `N#CC1=C(N)Oc2n[nH]c(-c3cccs3)c2C1c1cccs1` (stereo not given), for which the growth inhibition is -0.42% (inactive).

As for `O=C1CC(CSc2ccc(Cl)cc2)=NN1`, the growth inhibition was -0.64% (inactive).

On to `O=C(CSc1nnc(-c2ccccc2Cl)o1)Oc1ccc(Br)cc1`, for which the growth inhibition is 0.13% (inactive).

Take `CC(/C=N/NC(=O)Cc1cc(=O)[nH][nH]1)=C\c1ccccc1`: the growth inhibition is 2.34% (inactive).

Turning to `N#CC1=C(N)Oc2n[nH]c(-c3ccccc3)c2C1c1cccc(OC(=O)N2CCOCC2)c1` (stereo not given), the growth inhibition is -2.13% (inactive).

With `COc1ccc(/C=C2/C(=O)N(c3ccccc3)N=C2C)cc1OC`, the growth inhibition is 3.28% (inactive).

Take `CCOC(=O)C1CCN(C(=O)c2c(C)oc3c2C(=O)c2ccccc2C3=O)CC1`: the growth inhibition is 27.9% (inactive).

`CCOc1ccc(-c2[nH]nc3c2C(c2ccc(O)cc2)C(C#N)=C(N)O3)cc1` (stereo not given): the growth inhibition was -1.9% (inactive).

For the compound `O=C(Cc1cc(=O)[nH][nH]1)N/N=C/C=C/c1ccccc1`, the growth inhibition was -3.45% (inactive).

Turning to `Cc1ccc(-c2[nH]nc3c2C(c2ccc(OC(=O)N4CCOCC4)cc2)C(C#N)=C(N)O3)cc1` (stereo not given), the growth inhibition is 3.59% (inactive).

For the compound `Cc1ccsc1/C=N/NC(=O)Cc1cc(=O)[nH][nH]1`, the growth inhibition is -3.09% (inactive).

As to `CC(=O)N1CCC2(CC1)C(C#N)=C(N)Oc1n[nH]c(CSc3ccc(C)cc3)c12`, the growth inhibition was 1.12% (inactive).

As to `N#CC1=C(N)Oc2n[nH]c(-c3cccs3)c2C1c1ccccc1C(=O)O` (stereo not given), the growth inhibition was 10.2% (inactive).

For `Cc1cc(-c2[nH]nc3c2C(c2ccsc2)C(C#N)=C(N)O3)c(C)s1` (stereo not given), the growth inhibition is 3.11% (inactive).

As for `O=C(Cc1cc(=O)[nH][nH]1)N/N=C/c1c(F)cccc1Cl`, the growth inhibition was 1.68% (inactive).

Turning to `Cc1ccccc1-c1nc(CN(C)C(C)c2ccon2)c(C)o1` (stereo not given), the growth inhibition is 4.51% (inactive).

For `COc1ccc(-c2[nH]nc3c2C(c2ccoc2)C(C#N)=C(N)O3)cc1` (stereo not given), the growth inhibition is -0.09% (inactive).

As for `N#CC1=C(N)Oc2n[nH]c(-c3ccccc3)c2C1c1ccsc1` (stereo not given), the growth inhibition is 7.24% (inactive).

These data come from PubChem BioAssay AID489010 (Southern Research Specialized Biocontainment Screening …, 2010).
